Format in all cases: in vivo
Assay [1] has as its system mustard beetle larvae (Phaedon cochleariae). Put plainly: Phaedon cochleariae spray test. An excerpt: The fermentation product is referred to in the examples below as NRRL B-50550.
Solvent: 78.0 parts by weight of acetone

Assay [2] relates to fall armyworm larvae (Spodoptera frugiperda). Kind of assay: Spodoptera frugiperda spray test. From the text:
(§1) Emulsifier: alkylaryl polyglycol ether

In assay [3] the test system is two spotted spidermite (Tetranychus urticae). Kind of assay: Tetranychus urticae spray test, OP-resistant.
Description: as §1

Assay [4] concerns green peach aphid (Myzus persicae). Kind of assay: Myzus persicae spray test (Chinese cabbage leaf disks).
Description: as §1
100% means all aphids have been killed; 0% means none of the aphids have been killed.

For assay [5] the test system is unchanged. Kind of assay: Myzus persicae spray test (pepper leaves). Particulars: 0.5 ppm.

Consider `Cc1c(F)c(F)c(COC(=O)[C@@H]2[C@H](/C=C(\Cl)C(F)(F)F)C2(C)C)c(F)c1F` (racemic) [Tefluthrin], for which the “Efficacy in % after 2d” value in assay [1] (40 ppm) amounted to 0%. For `CNC(=O)c1cc(C#N)cc(C)c1NC(=O)c1cc(Cn2nnc(C(F)(F)F)n2)nn1-c1ncccc1Cl` [1-(3-chloropyridin-2-yl)-N-[4-cyano-2-methyl-6-(methylcarbamoyl)phenyl]-3-{[5-(trifluoromethyl)-2H-tetrazol-2-yl]methyl}-1H-pyrazole-5-carboxamide], the “Efficacy in % after 6d” value in assay [1] (0.128 ppm) was determined as 0%; in assay [2] (0.64 ppm), 33%. The “Efficacy in % after 2d” value in assay [1] (0.64 ppm) is listed as 50%.

With `Cc1cc(F)c(-n2nc(C(F)(F)F)nc2N)cc1[S+]([O-])CC(F)(F)F` (stereo not shown) [1-{2-fluoro-4-methyl-5-[(2,2,2-trifluorethyl)sulfinyl]phenyl}-3-(trifluoromethyl)-1H-1,2,4-triazol-5-amine], the “Efficacy in % after 6d” value in assay [3] (3.2 ppm) was 0%. Regarding `CNC(=O)c1cc(Cl)cc(C)c1NC(=O)c1cc(Br)nn1-c1ncccc1Cl` [Chlorantraniliprole], in assay [4] (3.2 ppm), the “Efficacy in % after 1d” value turned out to be 0%. In addition, in assay [3] (16 ppm), the “Efficacy in % after 6d” value is reported as 0%. For the molecule `CN/C(=N\[N+](=O)[O-])NCc1cnc(Cl)s1` [Clothianidin], the “Efficacy in % after 6d” value in assay [4] (0.32 ppm) is recorded as 0%. Regarding `CNC(=O)c1cc(C#N)cc(C)c1NC(=O)c1cc(Br)nn1-c1ncccc1Cl` [Cyantraniliprole], the “Efficacy in % after 6d” value in assay [1] (0.64 ppm), in assay [4] (0.64 ppm), in assay [4] (3.2 ppm) and in assay [3] (80 ppm) was 0% each time. In addition, in assay [4] (16 ppm), the “Efficacy in % after 1d” value is 0%. On to `N#Cc1nn(-c2c(Cl)cc(C(F)(F)F)cc2Cl)c(N)c1[S+]([O-])C(F)(F)F` (stereo not shown) [Fipronil], for which the “Efficacy in % after 6d” value in assay [2] (16 ppm) is 0%. For the molecule `Cc1cc(C(F)(C(F)(F)F)C(F)(F)F)ccc1NC(=O)c1cccc(I)c1C(=O)NC(C)(C)CS(C)(=O)=O` [Flubendiamide], the “Efficacy in % after 2d” value in assay [2] (3.2 ppm) amounted to 33%. Turning to `O=[N+]([O-])NC1=NCCN1Cc1ccc(Cl)nc1` [Imidacloprid], the “Efficacy in % after 6d” value in assay [3] (2 ppm) is listed as 0%.

As to `CNC(=O)Oc1cc(C)c(SC)c(C)c1` [Methiocarb], the “Efficacy in % after 6d” value in assay [4] (2000 ppm) turned out to be 0%. Consider `CC(c1ccc(C(F)(F)F)nc1)S(C)(=O)=NC#N` (stereo not shown) [Sulfoxaflor], for which, in assay [4] (0.64 ppm), the “Efficacy in % after 1d” value is reported as 0%.

For `N#C/N=C1\SCCN1Cc1ccc(Cl)nc1` [Thiacloprid], in assay [5], the “Efficacy in % after 2d” value is reported as 40%, the “Efficacy in % after 3d” value came out at 20% and the “Efficacy in % after 7d” value is 10%. For the molecule `CS/C(C)=N\OC(=O)N(C)SN(C)C(=O)O/N=C(\C)SC` [Thiodicarb], the “Efficacy in % after 2d” value in assay [2] (40 ppm) was 0%.

Take `CC1(C)C(C=C(Cl)Cl)C1C(=O)OC(C#N)c1ccc(F)c(Oc2ccccc2)c1` (stereo not drawn) [β-Cyfluthrin, beta-Cyfluthrin]: the “Efficacy in % after 6d” value in assay [1] (1.6 ppm), in assay [2] (1.6 ppm) and in assay [4] (1.6 ppm) was 0% throughout. Regarding Spinetoram, in assay [2] (0.64 ppm), the “Efficacy in % after 2d” value is listed as 0%. Consider Spinosad, for which the “Efficacy in % after 2d” value in assay [1] (80 ppm) is recorded as 50%. For the same molecule, the “Efficacy in % after 6d” value in assay [2] (0.64 ppm) came out at 0%.

Source of the values: US9192166B2, “Compositions comprising a streptomyces-based biological control agent and an insecticide” (BAYER […], priority 2013, dated 2015).
